Measurements taken from patent US20250127698A1, “Hair Perming Compositions With Amine Derivatives” (ELC Management LLC, priority 2023, published 2025).

How the values were obtained:
[1] = pH of hair perming composition; type: physicochemical; conditions: for pH: hair perming composition: base of Table 2 (7.50% thioglycolic acid) plus alkalizer, same molar percentage of alkalizer
Text: For testing, we prepared the hair perming compositions shown by Tables 2 and 3, below. […] All compositions contain the same molar percentage of alkalizer, the water content being adjusted accordingly.

[2] = Straightening efficiency after hair straightening treatment; set-up: species or system human; conditions: Type 2C Caucasian hair; 1 wash with 5% SDS solution
Text: The ability of each test composition to straighten curly hair was established by measuring “straightening efficiency”. Straightening efficiency represents the degree to which curly hair is made straight by a hair straightening treatment. We start with a curly, untreated hair tress of length Lu. The tress has an ideal straight length of Li, which is the length of the untreated tress when flat ironed to its maximum, straight length. After treatment the tress has a length of Lt. Straightening efficiency is the gain in length as a percentage of the maximum possible gain in length. […] A straightening efficiency of 100% means that the treated tress retained the maximum possible length.
(§1) Two types of hair samples were tested for curling; mixed sourced virgin Type 1Caucasian hair, and single sourced virgin Type 1 hair. For straightening, mixed sourced virgin Type 2C (very wavy) Caucasian hair was tested. Hair straightening test samples were prepared by collecting hair fibers into tresses, and clamping each tress at both ends. For those test samples that were to undergo a straightening treatment, the length, Lu, was measured between two previously determined points.
(§2) Each hair tress was wetted (reverse osmosis water). For curling, each hair tress was wound along a peg board to form a sine wave pattern of five cycles, as described above. For straightening, each hair tress was held on a board in a straight conformation, tension was applied, and the ends of the tress were secured. All test samples (curling or straightening) were allowed to dry before proceeding. Each board with a hair tress test sample was dipped for 10 seconds into a beaker with one of the hair perming compositions. After removing a board from solution, it was immediately placed in an oven for 20 minutes at 37° C. (normal body temperature). The test sample was removed from the oven, and rinsed for five minutes with 37° C. water, being careful not to allow the running water to fall directly on the hair tresses. After blotting with a paper towel, test samples were allowed to rest for five minutes at room temperature, for air oxidation to occur. The hair straightening test samples were removed from the board, blow dried and flat ironed at 200° C., which is commonly done in salon practice. At this point, the ideal length, Li, was measured between the two previously determined point mentioned above. Thereafter, each sample was rebound to the board.
(§3) Each bound hair tress was submerged for ten seconds in a 2% solution of H2O2 to neutralize the reducing agent and promote S-S bond formation, so that the hair tress would retain a desired shape (sine wave pattern or straight) when removed from the board. Each hair tress rested at room temperature for about five minutes, then was rinsed under 37° C. running water for five minutes, and subsequently blotted with a paper towel. Each test sample hair tress was removed from the board, laid on a flat surface, and allowed to dry. The fully permed dry tresses were washed in 5% SDS (sodium dodecyl sulfate) solution (which simulates salon practice) and allowed to dry overnight.
(§4) For the curling test samples, the length, Lt, of five waves, crest to crest was measured. For the straightening test samples, the final length, Lt, was measured between the two previously determined points. At this point, differential scanning calorimetry (DSC) measurements were made on a portion of each hair tress test sample. Also, for longevity performance, each tress was subjected to the equivalent of eight hand washings in 5% SDS solution using the GyroWash color fastness to laundering tester, and allowed to dry, before another length measurement, Lt, was made.
Straightening efficiencies were computed using Equation 2.
[formula] • Lu=length of the untreated hair tress • Lt=length of treated hair tress • Li=ideal length of straightened hair
(Li−Lu) represents the maximum possible increase in length as a result of treatment. […]

[3] = DSC keratin denaturation temperature change after straightening treatment; set-up: species or system human; conditions: for ΔT (TUntreated−TAlkalizer, keratin denaturation temperature): Type 3 Caucasian hair after straightening, larger ΔT indicates more damage
Text: (§5) This damage occurs at the level of keratin proteins.
(§6) Untreated hair was used as a control.
(§7) A larger ΔT indicates more damage.

[4] = DSC keratin denaturation temperature change after curling treatment; set-up: species or system human; conditions: for ΔT (TUntreated−TAlkalizer, keratin denaturation temperature): Type 1 Chinese hair after curling treatment, larger ΔT indicates more damage; for damage to hair (in words): hair curling treatment, Type 1 Chinese hair
Text: as §5, §6, §7

[5] = as above; conditions: Type 1 Caucasian hair after curling treatment; larger ΔT indicates more damage
Procedure: It is known that the denaturation of keratin in hair can be detected by differential scanning calorimetry (DSC). DSC is a thermal analysis technique used to measure phase transition temperatures and heat of transformation (enthalpy) for endothermic and exothermic reactions.
For all of the test samples discussed above, DSC measurements were performed using the Discovery DSC 2500 (from TA Instruments. New Castle, DE). The experiments were carried out over a temperature range of 40° C. to 200° C., with a scan rate of 5° C./min under nitrogen protection. DSC samples were prepared by cutting tress samples into pieces (0.1 to 1.0 mm in size) and weighing. The hair samples were mixed with deionized water, and then sealed in high volume pans for at least 6 hours before measuring. The phase transition temperature (keratin denaturation temperature) of each hair sample was analyzed using TRIOS software (Discovery DSC 2500). Untreated hair was used as a control.
Each hair sample was analyzed at least twice, and the average temperature was obtained for data analysis. This was subtracted from the denaturation temperature of the control sample (ΔT=TUntreated−TAlkalizer). A larger ΔT indicates more damage.

[6] = Curl efficiency after hair curling treatment; set-up: species or system human; conditions: for curl after the equivalent of 8 washes (in words) / curl lost after the equivalent of 8 washes, as percentage of initial curl (in words): Caucasian hair; for % Change In Curl Efficiency From 1 to 8 Washes / imparting curl (in words) / Curl Efficiency (%) After Treatment, 1 Wash and Dry / Curl Efficiency (%) After Treatment, 8 Washes and Dry: Type 1 Caucasian hair; for Curl Efficiency (%) After Treatment, 1 Wash and Dry: 1 wash with 5% SDS solution; for Curl Efficiency (%) After Treatment, 8 Washes and Dry: equivalent of 8 washes with 5% SDS solution
Text: (§8) The ability of each test composition to curl hair was established by measuring “curl efficiency”. Curl efficiency is a measure of curl tightness following a hair curling treatment. The higher the efficiency, the tighter the curl. We used a well-known method of measuring curl efficiency, wherein a portion of untreated straight hair of known length, Lu, is secured on an arrangement of pegs to form a sine wave pattern of five cycles, crest-to-crest. Because the pegs are fixed, the ideal length, Li, of the portion of hair when arranged into the five-cycle wave pattern, is known. Starting with a straight swatch of hair of length Lu, the ideal outcome would be a curled swatch of hair with a length of Li. Curl efficiency is a measure of how closely the ideal is attained.
as §1, §2, §3, §4
(§9) Curl efficiencies were computed using Equation 1.
(§10) [formula] • Lu=length of the untreated hair tress • Lt=crest-to-crest length of the five-wave portion of the treated hair tress • Li=ideal length of curled hair […]

[7] = active component of alkalizer; cited from earlier work
[8] = Curl efficiency after hair curling treatment; set-up: species or system human; % Change In Curl Efficiency From 1 to 8 Washes: concentration or dose not given beside the values; conditions: for curl after the equivalent of 8 washes (in words) / curl lost after the equivalent of 8 washes, as percentage of initial curl (in words): Chinese hair; for % Change In Curl Efficiency From 1 to 8 Washes / imparting curl (in words) / Curl Efficiency (%) After Treatment, 1 Wash and Dry / Curl Efficiency (%) After Treatment, 8 Washes and Dry: Type 1 Chinese hair; for Curl Efficiency (%) After Treatment, 1 Wash and Dry: 1 wash with 5% SDS solution; for Curl Efficiency (%) After Treatment, 8 Washes and Dry: equivalent of 8 washes with 5% SDS solution
Text: as §8, §1, §2, §3, §4, §9, §10

## DL-2-amino-1-propanol [DL-2-AP]
[1]; Table 7
  pH of alkalizer composition: 9.45
[1]; Table 8
  pH of alkalizer composition: 9.45
[1]; Table 9
  pH of alkalizer composition: 9.45
[1]
  pH: 9.45
[2]
  Straightening Efficiency (%) After Treatment, 1 Wash and Dry: 95.35%
[3]
  ΔT (TUntreated−TAlkalizer, keratin denaturation temperature): 3.20 °C
[3]; hair straightening treatment, Type 3 Caucasian hair
  damage to hair (in words): more damage than ammonium hydroxide, MEA or AMP
[4]
  ΔT (TUntreated−TAlkalizer, keratin denaturation temperature): 3.49 C. °
  damage to hair (in words): did not perform as well as the other alkalizers
[5]
  ΔT (TUntreated−TAlkalizer, keratin denaturation temperature): 3.95 °C
[6]
  curl after the equivalent of 8 washes (in words): still had the most curl
  curl lost after the equivalent of 8 washes, as percentage of initial curl (in words): lost the most curl of the tested samples
  % Change In Curl Efficiency From 1 to 8 Washes: −11.11%
  imparting curl (in words): best at imparting curl
  Curl Efficiency (%) After Treatment, 1 Wash and Dry: 50.47%
  Curl Efficiency (%) After Treatment, 8 Washes and Dry: 44.86%
[7]
  pKa: 9.6
[8]
  curl after the equivalent of 8 washes (in words): still had the most curl
  curl lost after the equivalent of 8 washes, as percentage of initial curl (in words): lost the most curl of the tested samples
  % Change In Curl Efficiency From 1 to 8 Washes: −21.01%
  imparting curl (in words): best at imparting curl
  Curl Efficiency (%) After Treatment, 1 Wash and Dry: 69.81%
  Curl Efficiency (%) After Treatment, 8 Washes and Dry: 55.14%

## CC(C)(N)CO [AMP, Aminomethyl propanol, reference compound]
[3]
  ΔT (TUntreated−TAlkalizer, keratin denaturation temperature): 2.60 °C
[4]
  ΔT (TUntreated−TAlkalizer, keratin denaturation temperature): 1.65 C. °
[5]
  ΔT (TUntreated−TAlkalizer, keratin denaturation temperature): 3.11 °C
[7]
  pKa: 9.82

## NCC(O)CO (stereo not drawn) [Isoserinol, 3-Amino-1,2-propanediol]
[1]; Table 7
  pH of alkalizer composition: 9.18
[1]; Table 8
  pH of alkalizer composition: 9.18
[1]; Table 9
  pH of alkalizer composition: 9.18
[1]
  pH: 9.18
[2]
  Straightening Efficiency (%) After Treatment, 1 Wash and Dry: 97.30%
[3]
  ΔT (TUntreated−TAlkalizer, keratin denaturation temperature): 2.17 °C
[4]
  ΔT (TUntreated−TAlkalizer, keratin denaturation temperature): 2.51 C. °
  damage to hair (in words): did not perform as well as the other alkalizers
[5]
  ΔT (TUntreated−TAlkalizer, keratin denaturation temperature): 3.07 °C
[6]
  curl after the equivalent of 8 washes (in words): ranked second for curl
  curl lost after the equivalent of 8 washes, as percentage of initial curl (in words): comparable to or better than the standards
  % Change In Curl Efficiency From 1 to 8 Washes: −7.69%
  imparting curl (in words): next best at imparting curl
  Curl Efficiency (%) After Treatment, 1 Wash and Dry: 48.60%
  Curl Efficiency (%) After Treatment, 8 Washes and Dry: 44.86%
[8]
  curl after the equivalent of 8 washes (in words): ranked second for curl
  curl lost after the equivalent of 8 washes, as percentage of initial curl (in words): comparable to or better than the standards
  % Change In Curl Efficiency From 1 to 8 Washes: −10.93%
  imparting curl (in words): next best at imparting curl
  Curl Efficiency (%) After Treatment, 1 Wash and Dry: 59.81%
  Curl Efficiency (%) After Treatment, 8 Washes and Dry: 53.27%
